According to patent US20250059188A1, “ARYLSULPHONAMIDE COMPOUNDS” (Anaxis Pharma Pty Ltd, priority 2021, published 2025):

How the values were obtained:
Details in all cases: equilibrium dissociation constant
human MLKL (full length) = human MLKL (full length) (Homo sapiens (Human), UniProt Q8NB16); assay: KINOMEscan binding assay, human MLKL (full length)
Protocol: (§1) Binding affinity of the test compounds for human MLKL (full length), mouse MLKL (full length), human RIPK1 and human RIPK3 was determined using the KINOMEscan™ technology developed by DiscoverX (USA; http://www.discoverx.com). The assay was conducted according to manufacturer instructions.
(§2) Kinase assays. For most assays, kinase-tagged T7 phage strains were grown in parallel in 24-well blocks in an E. coli host derived from the BL21 strain. E. coli were grown to log-phase and infected with T7 phage from a frozen stock (multiplicity of infection=0.4) and incubated with shaking at 32° C. until lysis (90-150 minutes). The lysates were centrifuged (6,000×g) and filtered (0.2 μm) to remove cell debris. The remaining kinases were produced in HEK-293 cells and subsequently tagged with DNA for qPCR detection. […] The liganded beads were blocked with excess biotin and washed with blocking buffer (SeaBlock (Pierce), 1% BSA, 0.05% Tween 20, 1 mM DTT) to remove unbound ligand and to reduce non-specific phage binding. […] All reactions were performed in polypropylene 384-well plates in a final volume of 20 μL. […] The kinase concentration in the eluates was measured by qPCR.
(§3) An 11-point 3-fold serial dilution of each test compound was prepared in 100% DMSO at 100× final test concentration and subsequently diluted to 1× in the assay (final DMSO concentration=1%). Most Kos were determined using a compound top concentration=30,000 nM.
(§4) KD for each test compound was calculated with a standard dose-response curve using the Hill equation (equation (1)): […]
(§5) The Hill Slope was set to −1.
(§6) Curves were fitted using a non-linear least square fit with the Levenberg-Marquardt algorithm.

human RIPK1 = human RIPK1 (Homo sapiens (Human), UniProt Q13546); assay: KINOMEscan binding assay, human RIPK1
Protocol: as §1, §2, §3, §4, §5, §6

human RIPK3 = human RIPK3 (Homo sapiens (Human), UniProt Q9Y572); assay: KINOMEscan binding assay, human RIPK3
Protocol: as §1, §2, §3, §4, §5, §6

human RIPK1, sequence (Q13546 whole entry): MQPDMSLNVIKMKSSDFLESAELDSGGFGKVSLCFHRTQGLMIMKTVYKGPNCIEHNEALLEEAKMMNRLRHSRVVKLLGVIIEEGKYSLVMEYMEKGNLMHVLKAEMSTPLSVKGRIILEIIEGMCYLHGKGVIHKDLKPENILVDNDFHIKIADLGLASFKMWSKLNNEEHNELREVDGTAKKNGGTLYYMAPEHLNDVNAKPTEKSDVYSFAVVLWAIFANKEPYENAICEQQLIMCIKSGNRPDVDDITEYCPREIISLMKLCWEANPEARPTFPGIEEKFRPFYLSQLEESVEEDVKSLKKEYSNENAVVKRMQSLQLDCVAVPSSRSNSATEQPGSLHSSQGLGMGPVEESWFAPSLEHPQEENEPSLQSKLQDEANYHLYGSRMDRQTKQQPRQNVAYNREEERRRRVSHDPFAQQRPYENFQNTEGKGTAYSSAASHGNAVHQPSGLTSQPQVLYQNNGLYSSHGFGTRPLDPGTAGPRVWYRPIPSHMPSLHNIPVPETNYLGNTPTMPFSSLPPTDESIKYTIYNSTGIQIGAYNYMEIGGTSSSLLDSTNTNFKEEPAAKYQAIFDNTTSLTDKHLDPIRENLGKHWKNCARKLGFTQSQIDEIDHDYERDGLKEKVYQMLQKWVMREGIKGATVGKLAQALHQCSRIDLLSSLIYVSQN
human RIPK3, sequence (Q9Y572 whole entry): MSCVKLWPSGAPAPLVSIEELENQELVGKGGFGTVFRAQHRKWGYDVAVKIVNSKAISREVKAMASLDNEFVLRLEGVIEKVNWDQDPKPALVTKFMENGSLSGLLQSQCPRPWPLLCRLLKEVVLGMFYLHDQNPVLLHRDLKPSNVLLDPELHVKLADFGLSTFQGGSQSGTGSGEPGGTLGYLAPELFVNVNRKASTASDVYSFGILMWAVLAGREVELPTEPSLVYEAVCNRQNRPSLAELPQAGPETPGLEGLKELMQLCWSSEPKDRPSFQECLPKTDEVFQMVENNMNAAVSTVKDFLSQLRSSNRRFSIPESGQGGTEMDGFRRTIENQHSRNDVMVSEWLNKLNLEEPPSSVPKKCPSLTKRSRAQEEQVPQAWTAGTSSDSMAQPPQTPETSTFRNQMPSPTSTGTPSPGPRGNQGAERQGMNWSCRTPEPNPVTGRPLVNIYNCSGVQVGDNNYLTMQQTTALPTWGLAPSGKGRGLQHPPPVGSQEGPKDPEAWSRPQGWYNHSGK
human MLKL (full length), sequence (Q8NB16 whole entry): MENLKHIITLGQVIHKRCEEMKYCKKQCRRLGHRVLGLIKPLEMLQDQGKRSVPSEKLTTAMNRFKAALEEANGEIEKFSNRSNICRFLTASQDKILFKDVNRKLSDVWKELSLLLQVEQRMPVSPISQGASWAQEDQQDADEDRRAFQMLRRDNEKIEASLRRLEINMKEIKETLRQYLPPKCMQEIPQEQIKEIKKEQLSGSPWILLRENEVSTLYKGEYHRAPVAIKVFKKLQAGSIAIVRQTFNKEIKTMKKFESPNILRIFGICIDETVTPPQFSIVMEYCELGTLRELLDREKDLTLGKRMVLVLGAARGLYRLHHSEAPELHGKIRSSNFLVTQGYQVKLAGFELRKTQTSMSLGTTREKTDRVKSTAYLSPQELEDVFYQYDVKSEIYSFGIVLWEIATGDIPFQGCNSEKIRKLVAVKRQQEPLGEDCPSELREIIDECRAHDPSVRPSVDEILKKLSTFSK

## C[C@H](Oc1cc(-c2nn(C)c3ccnc(N)c23)ccc1NS(=O)(=O)C(F)F)c1ccc(F)cc1 [Compound 17, N-(4-{4-amino-1-methyl-1Hpyrazolo[4,3-c]pyridin-3-yl}-2-[(1S)-1-(4-fluorophenyl)ethoxy]phenyl)-1,1-difluoromethanesulfonamide]
Human MLKL (full length)
  Kd: < 0.001 µM
Human RIPK1
  Kd: > 10 µM
Human RIPK3
  Kd: > 10 µM

## Nc1n[nH]c2ccnc(-c3ccc(NS(=O)(=O)C(F)F)c(OCc4ccc(F)cc4)c3)c12 [Compound 68, N-(4-(3-amino-1H-pyrazolo[4,3-c]pyridin-4-yl)-2-((4-fluorophenyl)methoxy)phenyl)-1,1-difluoromethanesulfonamide]
Human MLKL (full length)
  Kd: 0.1 to 10 µM
Human RIPK1
  Kd: > 10 µM
Human RIPK3
  Kd: > 10 µM

## C[C@H](Oc1cc(-c2nn(C)c3c(C4=CCCNC4)cnc(N)c23)ccc1NS(=O)(=O)C(F)F)c1ccc(F)cc1 [Compound 54, (S)—N-(4-(4-amino-1-methyl-7-(1,2,5,6-tetrahydropyridin-3-yl)-1H-pyrazolo[4,3-c]pyridin-3-yl)-2-(1-(4-fluorophenyl)ethoxy)phenyl)-1,1-difluoromethanesulfonamide]
Human MLKL (full length)
  Kd: 0.001 to 0.1 µM
Human RIPK1
  Kd: > 10 µM
Human RIPK3
  Kd: > 10 µM

## C[C@H](Oc1cc(-c2cnn3ccnc(N)c23)ccc1NS(=O)(=O)C(F)F)c1ccc(F)cc1 [Compound 22, (S)—N-(4-(4-aminopyrazolo[1,5-a]pyrazin-3-yl)-2-(1-(4-fluorophenyl)ethoxy)phenyl)-1,1-difluoromethanesulfonamide]
Human MLKL (full length)
  Kd: < 0.001 µM
Human RIPK1
  Kd: > 10 µM
Human RIPK3
  Kd: > 10 µM

## Cn1nc(-c2ccc(NS(=O)(=O)C(F)F)c(OCc3cccc(Cl)c3)c2)c2c(N)ncc(-c3cnn(C4CCOCC4)c3)c21 [Compound 130, N-(4-(4-amino-1-methyl-7-(1-(tetrahydro-2H-pyran-4-yl)-1H-pyrazol-4-yl)-1H-pyrazolo[4,3-c]pyridin-3-yl)-2-((3-chlorobenzyl)oxy)phenyl)-1,1-difluoromethanesulfonamide]
Human MLKL (full length)
  Kd: < 0.001 µM
Human RIPK1
  Kd: > 10 µM
Human RIPK3
  Kd: > 10 µM

## C[C@H](Oc1cc(-c2nn(C)c3c(Cc4ccccc4)cnc(N)c23)ccc1NS(=O)(=O)C(F)F)c1ccc(F)cc1 [Compound 34, (S)-N-(4-(4-amino-7-benzyl-1-methyl-1H-pyrazolo[4,3-c]pyridin-3-yl)-2-(1-(4-fluorophenyl)ethoxy)phenyl)-1,1-difluoromethanesulfonamide]
Human MLKL (full length)
  Kd: 0.001 to 0.1 µM
Human RIPK1
  Kd: > 10 µM
Human RIPK3
  Kd: > 10 µM

## C[C@H](Oc1cc(-c2nn(C)c3c(-c4cnn(C5CCOCC5)c4)cnc(N)c23)ccc1NS(=O)(=O)C(F)F)c1ccccc1F [Compound 118, (S)-N-(4-(4-amino-1-methyl-7-(1-(tetrahydro-2H-pyran-4-yl)-1H-pyrazol-4-yl)-1H-pyrazolo[4,3-c]pyridin-3-yl)-2-(1-(2-fluorophenyl)ethoxy)phenyl)-1,1-difluoromethanesulfonamide]
Human MLKL (full length)
  Kd: 0.001 to 0.1 µM
Human RIPK1
  Kd: > 10 µM
Human RIPK3
  Kd: > 10 µM

## Cc1noc(C)c1-c1cnc(N)c2c(-c3ccc(NS(=O)(=O)C(F)F)c(O[C@@H](C)c4ccc(F)cc4)c3)nn(C)c12 [Compound 33, (S)-N-(4-(4-amino-7-(3,5-dimethylisoxazol-4-yl)-1-methyl-1H-pyrazolo[4,3-c]pyridin-3-yl)-2-(1-(4-fluorophenyl)ethoxy)phenyl)-1,1-difluoromethanesulfonamide]
Human MLKL (full length)
  Kd: 0.001 to 0.1 µM
Human RIPK1
  Kd: > 10 µM
Human RIPK3
  Kd: > 10 µM

## CCS(=O)(=O)Nc1ccc(-c2coc3c(-c4cnn(CCO)c4)cnc(N)c23)cc1OCc1ccc(F)cc1 [Compound 4, N-(4-(4-amino-7-(1-(2-hydroxyethyl)-1H-pyrazol-4-yl)furo[3,2-c]pyridin-3-yl)-2-((4-fluorobenzyl)oxy)phenyl)ethanesulfonamide]
Human MLKL (full length)
  Kd: 0.001 to 0.1 µM
Human RIPK1
  Kd: > 10 µM
Human RIPK3
  Kd: > 10 µM

## CCS(=O)(=O)Nc1ccc(-c2cnn3ccnc(N)c23)cc1OCc1ccc(F)cc1 [Compound 64, N-(4-(4-Aminopyrazolo[1,5-a]pyrazin-3-yl)-2-((4-fluorophenyl)methoxy)phenyl)ethane-1-sulfonamide]
Human MLKL (full length)
  Kd: 0.1 to 10 µM
Human RIPK1
  Kd: > 10 µM
Human RIPK3
  Kd: > 10 µM
